From ChEMBL document CHEMBL1201862, “PubChem BioAssay data set” (2004)
Active and inactive are the calls of the source.

Assays:
P388/ADR = test: cells; assay type: functional; settings: Mus musculus
SN12K1 = test: cells; assay type: functional; settings: Homo sapiens
P388 = test: cells; assay type: functional; settings: Mus musculus
Aminopeptidase N = target: T1, Aminopeptidase N (Plasmodium falciparum FcB1/Columbia, UniProt O96935); test: P. falciparum M1AAP inhibitors, biochemical, fluorogenic H-Leu-NHMec substrate, 1536-well (AID 1445); set-up: species or system Plasmodium falciparum 3D7, 3D7
T1 sequence (O96935 whole entry): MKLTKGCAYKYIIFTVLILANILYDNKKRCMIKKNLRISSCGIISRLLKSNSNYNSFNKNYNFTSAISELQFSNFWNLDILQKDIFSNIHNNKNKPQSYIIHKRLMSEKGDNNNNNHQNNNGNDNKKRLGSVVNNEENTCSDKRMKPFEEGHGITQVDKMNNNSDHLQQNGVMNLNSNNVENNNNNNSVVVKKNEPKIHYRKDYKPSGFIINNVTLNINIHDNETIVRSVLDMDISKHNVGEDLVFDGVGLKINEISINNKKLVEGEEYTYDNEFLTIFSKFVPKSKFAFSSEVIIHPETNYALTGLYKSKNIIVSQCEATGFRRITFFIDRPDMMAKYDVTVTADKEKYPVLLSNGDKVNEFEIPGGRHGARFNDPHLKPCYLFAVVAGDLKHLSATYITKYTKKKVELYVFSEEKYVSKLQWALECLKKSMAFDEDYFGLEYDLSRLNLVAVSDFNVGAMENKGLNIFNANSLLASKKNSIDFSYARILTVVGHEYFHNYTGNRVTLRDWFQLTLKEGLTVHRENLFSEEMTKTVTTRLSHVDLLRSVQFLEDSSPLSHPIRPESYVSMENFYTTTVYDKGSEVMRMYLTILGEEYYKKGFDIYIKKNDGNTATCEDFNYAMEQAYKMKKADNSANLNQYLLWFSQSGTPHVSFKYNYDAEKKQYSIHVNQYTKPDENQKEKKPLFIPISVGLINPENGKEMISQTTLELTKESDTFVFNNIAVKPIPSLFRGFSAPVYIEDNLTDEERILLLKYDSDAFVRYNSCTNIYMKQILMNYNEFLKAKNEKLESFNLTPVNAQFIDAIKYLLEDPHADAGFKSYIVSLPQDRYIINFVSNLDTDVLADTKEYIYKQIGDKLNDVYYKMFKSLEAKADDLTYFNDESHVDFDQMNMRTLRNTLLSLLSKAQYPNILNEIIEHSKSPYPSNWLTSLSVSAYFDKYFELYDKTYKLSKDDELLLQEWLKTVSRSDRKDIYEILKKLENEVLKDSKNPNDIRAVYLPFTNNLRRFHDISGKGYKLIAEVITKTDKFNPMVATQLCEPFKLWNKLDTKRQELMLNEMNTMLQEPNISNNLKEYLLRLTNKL

[1] = target: T2, Long-chain-fatty-acid--AMP ligase FadD28 (Mycobacterium tuberculosis, UniProt P9WQ59); test: Fluorescence polarization aasay to screen for inhibitors that compete for the binding of FadD28 to a bisubstrate Measured in Biochemical System Using Plate Reader - 2147-01_Inhibitor_Dose_CherryPick_Activity.; assay type: functional, Mycobacterium tuberculosis H37Rv
T2 sequence (P9WQ59 whole entry): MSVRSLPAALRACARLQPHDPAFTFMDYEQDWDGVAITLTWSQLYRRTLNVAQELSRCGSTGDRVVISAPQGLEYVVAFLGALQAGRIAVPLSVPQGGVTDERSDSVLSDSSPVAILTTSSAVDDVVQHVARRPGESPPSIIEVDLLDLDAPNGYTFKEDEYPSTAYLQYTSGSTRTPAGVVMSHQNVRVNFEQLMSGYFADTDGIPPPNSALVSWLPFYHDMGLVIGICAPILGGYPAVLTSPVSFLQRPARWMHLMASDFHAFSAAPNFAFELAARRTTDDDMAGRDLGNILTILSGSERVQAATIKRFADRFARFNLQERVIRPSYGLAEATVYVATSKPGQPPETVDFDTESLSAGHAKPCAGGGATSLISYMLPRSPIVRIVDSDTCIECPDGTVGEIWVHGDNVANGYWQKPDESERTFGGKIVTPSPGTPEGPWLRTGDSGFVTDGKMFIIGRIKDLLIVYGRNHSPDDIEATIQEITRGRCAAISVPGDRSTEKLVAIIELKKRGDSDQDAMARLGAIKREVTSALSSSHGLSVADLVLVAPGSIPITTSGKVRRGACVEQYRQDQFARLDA

Large T antigen = Large T antigen (Simian virus 40, UniProt P03070); assay type: functional, Betapolyomavirus macacae;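 also: Confirmatory-stage PubChem screen for compounds that inhibit SV40 T antigen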
Large T antigen, sequence (P03070 whole entry): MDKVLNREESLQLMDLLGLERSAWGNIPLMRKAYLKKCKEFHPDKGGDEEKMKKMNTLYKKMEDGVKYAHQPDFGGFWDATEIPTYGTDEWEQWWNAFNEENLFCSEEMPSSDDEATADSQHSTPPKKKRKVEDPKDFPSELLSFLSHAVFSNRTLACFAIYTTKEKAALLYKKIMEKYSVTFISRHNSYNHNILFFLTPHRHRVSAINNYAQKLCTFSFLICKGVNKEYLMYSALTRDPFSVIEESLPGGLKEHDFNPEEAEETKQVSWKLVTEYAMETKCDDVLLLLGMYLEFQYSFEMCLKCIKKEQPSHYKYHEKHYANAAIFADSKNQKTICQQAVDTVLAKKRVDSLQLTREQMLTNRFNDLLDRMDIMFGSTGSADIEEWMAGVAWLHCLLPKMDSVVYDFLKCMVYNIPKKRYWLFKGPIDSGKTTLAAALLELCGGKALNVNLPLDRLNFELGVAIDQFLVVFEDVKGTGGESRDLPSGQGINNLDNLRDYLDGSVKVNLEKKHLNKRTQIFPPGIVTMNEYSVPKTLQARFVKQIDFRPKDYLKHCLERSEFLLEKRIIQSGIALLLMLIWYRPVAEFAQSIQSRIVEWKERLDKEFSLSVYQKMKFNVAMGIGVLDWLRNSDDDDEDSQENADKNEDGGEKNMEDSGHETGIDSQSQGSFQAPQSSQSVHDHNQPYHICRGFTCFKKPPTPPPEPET

[2] = target: FAD-linked sulfhydryl oxidase ALR (Homo sapiens, UniProt P55789); test: inhibitors of human ALR sulfhydryl oxidase, dose response, biochemical, H2O2 detection, luminescence, cherry-pick (AID 493248)
FAD-linked sulfhydryl oxidase ALR, sequence (P55789 whole entry): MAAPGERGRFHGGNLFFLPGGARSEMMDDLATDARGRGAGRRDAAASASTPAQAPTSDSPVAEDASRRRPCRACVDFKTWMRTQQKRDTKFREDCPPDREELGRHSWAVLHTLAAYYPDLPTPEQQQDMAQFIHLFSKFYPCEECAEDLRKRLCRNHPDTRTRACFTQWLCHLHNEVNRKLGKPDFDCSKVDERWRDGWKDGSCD

[3] = target: T3, Heat shock factor protein 1 (Mus musculus, UniProt P38532); test: HSF1 potentiators in luciferase reporter cells, confirmation, cell-based, NIH3T3, luminescence, dose retest (AID 435004); assay type: functional;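 also: stress induced by proteasome inhibitor MG132 added 30 min after compound; luciferase reporter driven by HSF1 response element in NIH3T3 cells; actives raise luminescence as potentiators of the MG132 stress response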
T3 sequence (P38532 whole entry): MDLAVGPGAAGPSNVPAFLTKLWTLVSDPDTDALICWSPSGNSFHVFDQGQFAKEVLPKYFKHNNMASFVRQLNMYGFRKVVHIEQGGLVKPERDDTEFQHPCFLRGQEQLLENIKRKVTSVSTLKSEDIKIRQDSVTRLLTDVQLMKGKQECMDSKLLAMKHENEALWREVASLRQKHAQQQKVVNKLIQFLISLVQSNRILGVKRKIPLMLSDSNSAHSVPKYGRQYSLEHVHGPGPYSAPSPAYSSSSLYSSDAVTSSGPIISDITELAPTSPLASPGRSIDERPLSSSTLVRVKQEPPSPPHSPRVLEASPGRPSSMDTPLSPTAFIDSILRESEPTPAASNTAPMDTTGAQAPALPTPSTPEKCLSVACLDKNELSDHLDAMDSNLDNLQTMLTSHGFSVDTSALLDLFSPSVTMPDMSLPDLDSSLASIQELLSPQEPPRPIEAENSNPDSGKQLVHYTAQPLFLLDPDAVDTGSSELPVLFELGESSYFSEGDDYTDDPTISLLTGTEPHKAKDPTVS

[4] = inhibitors of HIV Env-driven cell fusion, dose response, cherry-pick (AID 652057); assay type: functional, cell-based
[5] = ZM109 Env clade C HIV-1 fusion inhibitors, dose response, HeLa effector, CEM target cells, luciferase, cherry-pick (AID 652058); assay type: functional, cell-based
[6] = off-target signal loss in HeLa-CEM21 co-culture – HeLa F-luc CTL cells, cherry-picked, counter-screen for HIV-1 Env fusion inhibitor project, dose response (AID 652040); assay type: functional, cell-based;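 also: potency for signal decrease marking cytotoxic or nonspecific inhibition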
[7] = inhibitors of clade B AD8 Env fusion, dose response, cell-based, cherry-pick (AID 652062); assay type: functional;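 also: luciferase signal from cell-cell fusion driven by HIV-1 clade B AD8 Env; potency is for inhibitors of fusion seen as a drop in luminescence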
Nonstructural protein 1 = Nonstructural protein 1 (Influenza A virus, UniProt Q194T2); assay type: functional, Influenza A virus (A/California/07/2009(H1N1))
Nonstructural protein 1, sequence (Q194T2 whole entry, the tested form may be a part): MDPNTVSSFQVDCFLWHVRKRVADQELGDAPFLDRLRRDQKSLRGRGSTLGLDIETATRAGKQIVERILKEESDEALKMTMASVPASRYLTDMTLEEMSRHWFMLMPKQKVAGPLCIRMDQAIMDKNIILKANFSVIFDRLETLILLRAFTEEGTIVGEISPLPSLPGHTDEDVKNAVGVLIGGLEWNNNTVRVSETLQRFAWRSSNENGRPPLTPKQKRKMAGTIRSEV

Fatty acid synthase [8] = target: T4, Fatty acid synthase (Homo sapiens, UniProt P49327); test: FAS thioesterase domain inhibitors, dose response, biochemical, endpoint fluorescence intensity, uHTS hits (AID 624327); assay type: functional;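 also: fluorescence from hydrolysis of an O-methyl fluorescein acyl ester substrate by the enzyme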
T4 sequence (P49327 whole entry, the tested form may be a part): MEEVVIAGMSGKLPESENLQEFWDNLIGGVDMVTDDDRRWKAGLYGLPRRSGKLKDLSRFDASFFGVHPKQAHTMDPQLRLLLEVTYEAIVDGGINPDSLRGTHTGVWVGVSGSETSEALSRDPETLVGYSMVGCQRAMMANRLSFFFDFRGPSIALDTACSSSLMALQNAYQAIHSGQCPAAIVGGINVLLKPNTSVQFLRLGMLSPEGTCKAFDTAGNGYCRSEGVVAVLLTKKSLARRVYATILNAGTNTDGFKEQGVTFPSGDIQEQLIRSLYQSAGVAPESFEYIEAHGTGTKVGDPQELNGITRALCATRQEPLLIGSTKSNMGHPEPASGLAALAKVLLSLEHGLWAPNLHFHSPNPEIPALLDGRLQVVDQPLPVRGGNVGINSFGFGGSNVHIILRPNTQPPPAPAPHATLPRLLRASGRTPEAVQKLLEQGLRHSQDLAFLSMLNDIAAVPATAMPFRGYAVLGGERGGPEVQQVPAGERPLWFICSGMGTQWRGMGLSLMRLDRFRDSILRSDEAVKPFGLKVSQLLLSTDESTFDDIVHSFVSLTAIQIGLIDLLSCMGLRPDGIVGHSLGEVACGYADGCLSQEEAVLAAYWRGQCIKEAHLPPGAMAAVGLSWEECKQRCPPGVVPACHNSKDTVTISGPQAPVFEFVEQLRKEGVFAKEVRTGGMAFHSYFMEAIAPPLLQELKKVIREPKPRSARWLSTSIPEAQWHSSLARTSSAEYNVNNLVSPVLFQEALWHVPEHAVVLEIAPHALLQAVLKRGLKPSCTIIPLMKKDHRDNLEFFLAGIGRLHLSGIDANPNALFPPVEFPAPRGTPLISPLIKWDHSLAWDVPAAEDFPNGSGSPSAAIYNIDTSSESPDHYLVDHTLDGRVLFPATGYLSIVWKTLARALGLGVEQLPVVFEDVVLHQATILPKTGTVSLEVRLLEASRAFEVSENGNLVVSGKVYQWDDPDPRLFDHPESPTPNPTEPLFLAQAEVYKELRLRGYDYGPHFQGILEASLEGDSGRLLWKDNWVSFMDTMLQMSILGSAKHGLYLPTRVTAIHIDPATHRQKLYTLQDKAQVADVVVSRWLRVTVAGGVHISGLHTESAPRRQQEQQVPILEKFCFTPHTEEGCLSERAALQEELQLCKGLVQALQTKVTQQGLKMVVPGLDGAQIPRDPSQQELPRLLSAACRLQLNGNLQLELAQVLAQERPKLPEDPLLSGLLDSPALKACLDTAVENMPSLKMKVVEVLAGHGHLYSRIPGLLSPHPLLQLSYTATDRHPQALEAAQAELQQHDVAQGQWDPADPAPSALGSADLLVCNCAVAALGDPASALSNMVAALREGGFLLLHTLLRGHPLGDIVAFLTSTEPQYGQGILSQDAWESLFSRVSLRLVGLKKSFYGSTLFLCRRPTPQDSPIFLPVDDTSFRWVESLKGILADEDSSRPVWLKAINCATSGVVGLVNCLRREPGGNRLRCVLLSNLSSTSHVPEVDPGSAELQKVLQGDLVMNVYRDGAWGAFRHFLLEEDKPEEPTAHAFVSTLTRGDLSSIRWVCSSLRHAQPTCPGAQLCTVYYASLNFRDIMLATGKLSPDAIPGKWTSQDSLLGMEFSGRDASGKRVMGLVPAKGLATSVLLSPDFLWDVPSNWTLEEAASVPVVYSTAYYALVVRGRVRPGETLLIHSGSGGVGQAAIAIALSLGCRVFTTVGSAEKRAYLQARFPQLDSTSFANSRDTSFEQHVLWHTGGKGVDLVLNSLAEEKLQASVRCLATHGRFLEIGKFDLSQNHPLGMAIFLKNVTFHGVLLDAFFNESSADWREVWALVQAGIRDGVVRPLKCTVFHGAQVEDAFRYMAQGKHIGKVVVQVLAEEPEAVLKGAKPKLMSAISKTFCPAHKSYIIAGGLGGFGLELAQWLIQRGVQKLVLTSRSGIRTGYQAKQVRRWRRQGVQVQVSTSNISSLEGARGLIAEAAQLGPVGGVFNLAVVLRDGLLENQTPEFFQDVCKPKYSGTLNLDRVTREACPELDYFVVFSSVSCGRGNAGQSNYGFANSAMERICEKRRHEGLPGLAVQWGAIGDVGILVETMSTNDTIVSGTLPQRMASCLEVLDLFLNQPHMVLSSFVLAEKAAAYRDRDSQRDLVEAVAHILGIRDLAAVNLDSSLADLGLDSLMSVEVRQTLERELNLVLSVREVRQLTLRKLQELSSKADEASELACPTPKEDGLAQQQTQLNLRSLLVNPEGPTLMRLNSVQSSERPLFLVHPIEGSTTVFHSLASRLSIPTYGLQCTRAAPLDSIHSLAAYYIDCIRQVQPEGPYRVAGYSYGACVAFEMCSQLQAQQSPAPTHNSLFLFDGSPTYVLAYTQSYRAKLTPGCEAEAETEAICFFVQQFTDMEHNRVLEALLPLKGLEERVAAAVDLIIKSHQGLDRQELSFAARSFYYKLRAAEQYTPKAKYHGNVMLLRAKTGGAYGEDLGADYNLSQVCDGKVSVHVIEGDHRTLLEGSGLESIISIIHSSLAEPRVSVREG

Fatty acid synthase [9] = target: T4, Fatty acid synthase; test: FAS thioesterase domain inhibitors, dose response, biochemical, kinetic fluorescence intensity (AID 624326); assay type: functional;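 also: rate of fluorescence rise from hydrolysis of a fluorogenic O-methyl fluorescein ester substrate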
Genome polyprotein = Genome polyprotein (dengue virus type 2, UniProt P29990); test: Dengue-2 NS5 methyltransferase inhibitors, primary screen, biochemical, confirmation dose response (AID 588689); assay type: functional
Genome polyprotein, sequence (P29990 2492-3391 limits assumed): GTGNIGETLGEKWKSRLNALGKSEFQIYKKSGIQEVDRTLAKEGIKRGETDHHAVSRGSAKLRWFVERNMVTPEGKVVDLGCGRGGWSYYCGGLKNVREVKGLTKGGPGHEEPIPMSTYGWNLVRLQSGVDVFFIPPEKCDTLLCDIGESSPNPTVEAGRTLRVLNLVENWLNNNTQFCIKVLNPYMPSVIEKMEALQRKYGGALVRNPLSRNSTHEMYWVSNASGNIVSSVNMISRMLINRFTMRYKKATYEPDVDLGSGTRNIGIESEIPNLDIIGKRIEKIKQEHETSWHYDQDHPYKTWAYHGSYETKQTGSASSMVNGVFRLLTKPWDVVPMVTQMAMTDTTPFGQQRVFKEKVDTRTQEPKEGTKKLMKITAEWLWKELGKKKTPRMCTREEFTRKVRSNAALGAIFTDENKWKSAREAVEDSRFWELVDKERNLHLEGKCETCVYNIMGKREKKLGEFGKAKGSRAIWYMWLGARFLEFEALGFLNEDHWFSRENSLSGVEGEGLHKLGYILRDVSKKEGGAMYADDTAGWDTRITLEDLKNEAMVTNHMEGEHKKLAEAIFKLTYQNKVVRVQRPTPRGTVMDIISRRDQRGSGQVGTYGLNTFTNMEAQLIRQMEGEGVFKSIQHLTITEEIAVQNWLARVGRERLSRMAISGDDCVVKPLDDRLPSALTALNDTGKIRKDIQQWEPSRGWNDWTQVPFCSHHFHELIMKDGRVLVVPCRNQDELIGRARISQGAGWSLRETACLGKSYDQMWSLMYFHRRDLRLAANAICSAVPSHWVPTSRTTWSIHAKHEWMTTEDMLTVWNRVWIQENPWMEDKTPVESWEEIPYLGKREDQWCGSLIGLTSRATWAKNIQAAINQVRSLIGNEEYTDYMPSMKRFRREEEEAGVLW

C=CC[N+](CCO)(CCO)CCCCCCCCCCCCCCCCCC
GI50 (P388/ADR): 5.3 µM (inactive)
GI50 (SN12K1): 6.08 µM (inactive)
GI50 (P388): 0.486 µM (active)

C/C(NNC(=O)c1ccccc1O)=C1/C(=O)NC(=O)N(Cc2ccccc2)C1=O
IC50 (Aminopeptidase N): 19.2 µM (active)
AC50 [1]: 20.4 µM (active)

CN(C)c1ccc(NC(=O)CSc2nnc(-c3cnccn3)n2C)cc1
IC50 (Large T antigen): 17.8 µM (active)

CCN(CC)c1ccc(CN(C(=O)c2cccs2)C2CCS(=O)(=O)C2)cc1 (centres undefined)
AC50 [2]: 2.65 µM (active)

O=c1cccc2n1CC1CC2CN(c2nc(N3CCCCC3)nc(N3CCCCC3)n2)C1 (centres undefined)
EC50 [3]: > 260 µM (inactive)
AC50 [4]: 1.69 µM (active)
AC50 [5]: 1.58 µM (active)
AC50 [6]: 3.76 µM (active)
AC50 [7]: 6.73 µM (active)

COC(=O)c1ccc(N2CCc3ccccc32)c([N+](=O)[O-])c1
IC50 (Nonstructural protein 1): 24 µM (active)

C/C=C/c1cc2c(c(=O)o1)C(=O)[C@@H](O)[C@H](C)O2
GI50 (P388/ADR): 2.89 µM (inactive)
GI50 (SN12K1): 17.1 µM (inactive)
GI50 (P388): 2.77 µM (inactive)

CN(CCCNC(=O)C1CCCN(S(=O)(=O)c2c[nH]cn2)C1)c1ccccc1 (centres undefined)
AC50 [2]: 0.085 µM (active)

Cn1cc(/C=N/NC(=O)COc2ccccc2[N+](=O)[O-])c2ccccc21
AC50 [1]: > 100 µM (inactive)

CC(=O)c1cccc2c1OC(C)C(=O)N2Cc1ccc(Cl)cc1 (centres undefined)
IC50 (Fatty acid synthase [8]): 9.15 µM (active)
IC50 (Fatty acid synthase [9]): 5.63 µM (active)

Cc1ccc(S(=O)(=O)c2nnn3c2nc(NCCCN2CCCC2=O)c2ccccc23)cc1C
IC50 (Fatty acid synthase [8]): 5.19 µM (active)
IC50 (Fatty acid synthase [9]): 2.85 µM (active)

C=CCCCCn1c2ccccc2c2c(C)c3cnccc3c(C)c21
GI50 (P388/ADR): 1.84 µM (inactive)
GI50 (SN12K1): 5.97 µM (inactive)
GI50 (P388): 1.93 µM (inactive)

COC(=O)NC1C(C)OC(OC2C/C=C(/C)C3C=CC4C(OC5CC(OC6CCC(OC7CC(O)C(OC8CCC(O)C(C)O8)C(C)O7)C(C)O6)C(OC(C)=O)C(C)O5)C(C)CC(C)C4C3(C)/C(O)=C3/C(=O)OC4(CC(C=O)=CC(O)C4/C=C\2C)C3=O)CC1(C)[N+](=O)[O-] (centres undefined)
GI50 (P388/ADR): 2.64 µM (inactive)
GI50 (SN12K1): 0.262 µM (active)
GI50 (P388): 0.337 µM (active)

Cc1ccc(CN2CCSc3ccc(C(=O)NCCCN4CCN(C)CC4)cc32)cc1
AC50 [2]: 0.195 µM (active)

COc1cccc(NC(=O)CN2C(=O)CSc3ccc(S(=O)(=O)N4CCCCC4)cc32)c1
IC50 (Fatty acid synthase [8]): 8.72 µM (active)
IC50 (Fatty acid synthase [9]): 9.58 µM (active)

Sc1n[nH]c(-c2csc3c2CCCC3)n1
AC50 [2]: 0.044 µM (active)

CCn1cc(CN2CCC(C(=O)Nc3ccc(Oc4cccnc4)cc3)CC2)c(C)n1
AC50 [1]: 21.7 µM (active)

CCN(c1ccc(NC(=O)CSc2ccc3c(c2)OCCO3)cc1)C(C)C
AC50 [1]: 20.3 µM (active)

COc1cc2cc(c1Cl)N(C)C(=O)C[C@H](OC(=O)[C@H](C)N(C)C(C)=O)[C@]1(C)O[C@H]1[C@H](C)[C@@H]1C[C@@](O)(NC(=O)O1)[C@H](OC)/C=C/C=C(/C)C2
GI50 (P388/ADR): 0.025 µM (active)
GI50 (SN12K1): 0.0262 µM (active)
GI50 (P388): 0.025 µM (active)

COc1cc(/C=C2\SC(=O)N(CC(=O)Nc3cccc(C)c3)C2=O)ccc1OC(C)C(=O)O (centres undefined)
AC50 [1]: 0.583 µM (active)

O=C(CC(NCc1ccccn1)C(=O)O)Nc1ccccc1Cl (centres undefined)
IC50 (Nonstructural protein 1): 1.48 µM (active)

N#C/C(=N\Nc1ccc([N+](=O)[O-])cc1)C(N)=S
AC50 [1]: 19.5 µM (active)

Cc1nc(C)c(-c2csc(Nc3ccc(F)cc3)n2)s1
AC50 [2]: 0.185 µM (active)

O=C1c2ccccc2C(=O)N1CCc1c[nH]c2ccc(O)cc12
IC50 (Large T antigen): 59.7 µM (active)

COC(=O)c1ccc(COc2ccccc2/C=N/Nc2cccc(C(=O)O)c2)cc1
IC50 (Aminopeptidase N): 47 µM (active)
IC50 (Genome polyprotein): 76.2 µM (active)

COc1ccc(C)cc1NC(=O)CSc1ccc(-c2ccccn2)nn1
IC50 (Nonstructural protein 1): 9.77 µM (active)

C=CC(=O)NC(=N)NC#N
GI50 (P388/ADR): 25.8 µM (inactive)
GI50 (SN12K1): > 100 µM (inactive)
GI50 (P388): 12.8 µM (inactive)

Cc1ccc(C)c(S(=O)(=O)Nc2ccc(O)cc2)c1
IC50 (Large T antigen): 11.1 µM (active)
